In PubChem BioAssay AID1259407 (Chemical Carcinogenesis Research Information System (CCRIS), 2018):
Calls of active or inactive are those of the source. The rule behind the calls is not given here.

Tested on: CCRIS mutagenicity, Ames/micronucleus/aberration tests
Assay: CCRIS mutagenicity studies
[1] = Test System: AMES SALMONELLA TYPHIMURIUM, Strain/Indicator: TA98, Metabolic Activation: NONE, Method: PREINCUBATION
[2] = Test System: AMES SALMONELLA TYPHIMURIUM, Strain/Indicator: TA100, Metabolic Activation: NONE, Method: PREINCUBATION

Compound: Cc1ccc(S(=O)(=O)NC(=O)NN2CCCCCC2)cc1
- mutagenic call (Test System: AMES SALMONELLA TYPHIMURIUM, Strain/Indicator: TA97, Metabolic Activation: HAMSTER, LIVER, S-9, AROCLOR 1254 (10%), Method: PREINCUBATION): inactive; negative
- mutagenic call (Test System: AMES SALMONELLA TYPHIMURIUM, Strain/Indicator: TA97, Metabolic Activation: HAMSTER, LIVER, S-9, AROCLOR 1254 (30%), Method: PREINCUBATION): inactive; negative
- mutagenic call (Test System: AMES SALMONELLA TYPHIMURIUM, Strain/Indicator: TA97, Metabolic Activation: NONE, Method: PREINCUBATION): inactive; negative
- mutagenic call (Test System: AMES SALMONELLA TYPHIMURIUM, Strain/Indicator: TA97, Metabolic Activation: RAT, LIVER, AROCLOR 1254 (30%), Method: PREINCUBATION): inactive; negative
- mutagenic call (Test System: AMES SALMONELLA TYPHIMURIUM, Strain/Indicator: TA97, Metabolic Activation: RAT, LIVER, S-9, AROCLOR 1254 (10%), Method: PREINCUBATION): inactive; negative
- mutagenic call (Test System: AMES SALMONELLA TYPHIMURIUM, Strain/Indicator: TA98, Metabolic Activation: HAMSTER, LIVER, S-9, AROCLOR 1254 (10 OR 30%), Method: PREINCUBATION): inactive; negative
- mutagenic call [1]: inactive; negative
- mutagenic call (Test System: AMES SALMONELLA TYPHIMURIUM, Strain/Indicator: TA98, Metabolic Activation: RAT, LIVER, S-9, AROCLOR 1254 (10 OR 30%), Method: PREINCUBATION): inactive; negative
- mutagenic call (Test System: AMES SALMONELLA TYPHIMURIUM, Strain/Indicator: TA100, Metabolic Activation: HAMSTER, LIVER, S-9, AROCLOR 1254 (10 OR 30%), Method: PREINCUBATION): inactive; negative
- mutagenic call [2]: inactive; negative
- mutagenic call (Test System: AMES SALMONELLA TYPHIMURIUM, Strain/Indicator: TA100, Metabolic Activation: RAT, LIVER, S-9, AROCLOR 1254 (10%), Method: PREINCUBATION): inactive; negative
- mutagenic call (Test System: AMES SALMONELLA TYPHIMURIUM, Strain/Indicator: TA1535, Metabolic Activation: HAMSTER, LIVER, S-9, AROCLOR 1254 (10%), Method: PREINCUBATION): inactive; negative
- mutagenic call (Test System: AMES SALMONELLA TYPHIMURIUM, Strain/Indicator: TA1535, Metabolic Activation: HAMSTER, LIVER, S-9, AROCLOR 1254 (30%), Method: PREINCUBATION): active; positive
- mutagenic call (Test System: AMES SALMONELLA TYPHIMURIUM, Strain/Indicator: TA1535, Metabolic Activation: NONE, Method: PREINCUBATION): inactive; negative
- mutagenic call (Test System: AMES SALMONELLA TYPHIMURIUM, Strain/Indicator: TA1535, Metabolic Activation: RAT, LIVER, S-9, AROCLOR 1254 (10 OR 30%), Method: PREINCUBATION): inactive; negative

Compound: COP(=S)(OC)Oc1ccc([N+](=O)[O-])c(C)c1
- mutagenic call (End Point: IN VIVO MICRONUCLEUS, Test System: BONE MARROW POLYCHROMATIC ERYTHROCYTES, Species: MOUSE, Strain/Sex: DDY/MALE, Route: IP): inactive; negative
- mutagenic call [1]: inactive; negative
- mutagenic call (Test System: AMES SALMONELLA TYPHIMURIUM, Strain/Indicator: TA98, Metabolic Activation: NONE, Method: STANDARD PLATE): inactive; negative
- mutagenic call (Test System: AMES SALMONELLA TYPHIMURIUM, Strain/Indicator: TA98, Metabolic Activation: RAT LIVER S-9 (10%), Method: PREINCUBATION): inactive; negative
- mutagenic call (Test System: AMES SALMONELLA TYPHIMURIUM, Strain/Indicator: TA98, Metabolic Activation: RAT, LIVER, S-9, AROCLOR 1254, Method: STANDARD PLATE): inactive; negative
- mutagenic call (Test System: AMES SALMONELLA TYPHIMURIUM, Strain/Indicator: TA98, Metabolic Activation: S-9, NADPH GENERATING SYSTEM, Method: STANDARD PLATE): inactive; negative
- mutagenic call [2]: inactive; negative
- mutagenic call (Test System: AMES SALMONELLA TYPHIMURIUM, Strain/Indicator: TA100, Metabolic Activation: NONE, Method: STANDARD PLATE): inactive; negative
- mutagenic call (Test System: AMES SALMONELLA TYPHIMURIUM, Strain/Indicator: TA100, Metabolic Activation: RAT LIVER S-9 (10%), Method: PREINCUBATION): inactive; negative
- mutagenic call (Test System: AMES SALMONELLA TYPHIMURIUM, Strain/Indicator: TA100, Metabolic Activation: RAT, LIVER, S-9, AROCLOR 1254, Method: STANDARD PLATE): inactive; negative
- mutagenic call (Test System: AMES SALMONELLA TYPHIMURIUM, Strain/Indicator: TA100, Metabolic Activation: S-9 MIX, Method: STANDARD PLATE): active; positive
- mutagenic call (Test System: AMES SALMONELLA TYPHIMURIUM, Strain/Indicator: TA102, Metabolic Activation: NONE, Method: STANDARD PLATE): inactive; negative
- mutagenic call (Test System: AMES SALMONELLA TYPHIMURIUM, Strain/Indicator: TA102, Metabolic Activation: S-9, NADPH GENERATING SYSTEM, Method: STANDARD PLATE): inactive; negative
- mutagenic call (Test System: AMES SALMONELLA TYPHIMURIUM, Strain/Indicator: TA1535, Metabolic Activation: NONE, Method: STANDARD PLATE): inactive; negative
- mutagenic call (Test System: AMES SALMONELLA TYPHIMURIUM, Strain/Indicator: TA1535, Metabolic Activation: S-9, NADPH GENERATING SYSTEM, Method: STANDARD PLATE): inactive; negative
- mutagenic call (Test System: AMES SALMONELLA TYPHIMURIUM, Strain/Indicator: TA1537, Metabolic Activation: NONE, Method: STANDARD PLATE): inactive; negative
- mutagenic call (Test System: AMES SALMONELLA TYPHIMURIUM, Strain/Indicator: TA1537, Metabolic Activation: S-9, NADPH GENERATING SYSTEM, Method: STANDARD PLATE): inactive; negative
- mutagenic call (Test System: AMES SALMONELLA TYPHIMURIUM, Strain/Indicator: YG1021, Metabolic Activation: NONE, Method: PREINCUBATION): inactive; negative
- mutagenic call (Test System: AMES SALMONELLA TYPHIMURIUM, Strain/Indicator: YG1021, Metabolic Activation: RAT LIVER S-9 (10%), Method: PREINCUBATION): inactive; negative
- mutagenic call (Test System: AMES SALMONELLA TYPHIMURIUM, Strain/Indicator: YG1024, Metabolic Activation: NONE, Method: PREINCUBATION): inactive; negative
- mutagenic call (Test System: AMES SALMONELLA TYPHIMURIUM, Strain/Indicator: YG1024, Metabolic Activation: RAT LIVER S-9 (10%), Method: PREINCUBATION): inactive; negative
- mutagenic call (Test System: AMES SALMONELLA TYPHIMURIUM, Strain/Indicator: YG1026, Metabolic Activation: NONE, Method: PREINCUBATION): active; positive
- mutagenic call (Test System: AMES SALMONELLA TYPHIMURIUM, Strain/Indicator: YG1026, Metabolic Activation: RAT LIVER S-9 (10%), Method: PREINCUBATION): active; positive
- mutagenic call (Test System: AMES SALMONELLA TYPHIMURIUM, Strain/Indicator: YG1029, Metabolic Activation: NONE, Method: PREINCUBATION): active; positive
- mutagenic call (Test System: AMES SALMONELLA TYPHIMURIUM, Strain/Indicator: YG1029, Metabolic Activation: RAT LIVER S-9 (10%), Method: PREINCUBATION): active; positive
- mutagenic call (Test System: AMES SALMONELLA TYPHIMURIUM, Strain/Indicator: YG1041, Metabolic Activation: NONE, Method: PREINCUBATION): active; positive
- mutagenic call (Test System: AMES SALMONELLA TYPHIMURIUM, Strain/Indicator: YG1041, Metabolic Activation: RAT LIVER S-9 (10%), Method: PREINCUBATION): active; positive
- mutagenic call (Test System: AMES SALMONELLA TYPHIMURIUM, Strain/Indicator: YG1042, Metabolic Activation: NONE, Method: PREINCUBATION): active; positive
- mutagenic call (Test System: AMES SALMONELLA TYPHIMURIUM, Strain/Indicator: YG1042, Metabolic Activation: RAT LIVER S-9 (10%), Method: PREINCUBATION): active; positive

Compound: C[Si](C)(C)N=[N+]=[N-]
- mutagenic call [2]: active; positive
- mutagenic call (Test System: AMES SALMONELLA TYPHIMURIUM, Strain/Indicator: TA100, Metabolic Activation: RAT, LIVER, S-9, PCB, Method: PREINCUBATION): active; positive
